Assay results taken from ChEMBL document CHEMBL1777766, “Design, synthesis and in vitro antibacterial activity of 7-(4-alkoxyimino-3-aminomethylpiperidin-1-yl)fluoroquinolone derivatives” (Bioorg Med Chem Lett, 2011).
≈ marks a conversion by molar mass, not a printed value.

How the values were obtained:
Staphylococcus aureus [1] = experiment: Antibacterial activity against methicillin-sensitive Staphylococcus aureus 08-49; assay type: functional
Shigella sonnei = experiment: Antibacterial activity against Shigella sonnei 51592; assay type: functional
Staphylococcus aureus [2] = experiment: Antibacterial activity against methicillin-resistant Staphylococcus aureus 08-52; assay type: functional
Salmonella typhi = experiment: Antibacterial activity against Bacillus typhi 50035; assay type: functional, Salmonella enterica subsp. enterica serovar Typhi; settings: Salmonella enterica
Proteus vulgaris = experiment: Antibacterial activity against Proteus vulgaris 56; assay type: functional
Escherichia coli [3] = experiment: Antibacterial activity against Extended spectrum beta-lactamase producing Escherichia coli 08-5; assay type: functional
[4] = test system: Staphylococcus epidermidis; experiment: Antibacterial activity against methicillin-sensitive Staphylococcus epidermidis 08-17; assay type: functional
Klebsiella pneumoniae = experiment: Antibacterial activity against Klebsiella pneumoniae ATCC 700603; assay type: functional
Staphylococcus aureus [5] = experiment: Antibacterial activity against Staphylococcus aureus ATCC 13709; assay type: functional
Enterobacter cloacae = experiment: Antibacterial activity against Enterobacter cloacae 45301; assay type: functional
Pseudomonas aeruginosa = experiment: Antibacterial activity against Pseudomonas aeruginosa 17; assay type: functional
[6] = test system: Staphylococcus epidermidis; experiment: Antibacterial activity against Staphylococcus epidermidis ATCC 12228; assay type: functional
[7] = test system: Staphylococcus epidermidis; experiment: Antibacterial activity against methicillin-resistant Staphylococcus epidermidis 08-18; assay type: functional
Streptococcus pneumoniae [8] = experiment: Antibacterial activity against Streptococcus pneumoniae ATCC 6301; assay type: functional
[9] = test system: Acinetobacter calcoaceticus; experiment: Antibacterial activity against Acinetobacter calcoaceticus 25001; assay type: functional
Providencia rettgeri = experiment: Antibacterial activity against Proteus rettgeri 49006; assay type: functional
Streptococcus pyogenes = experiment: Antibacterial activity against Streptococcus pyogenes 556; assay type: functional
Enterococcus faecalis [10] = experiment: Antibacterial activity against Enterococcus faecalis ATCC 51299; assay type: functional
Enterococcus faecalis [11] = experiment: Antibacterial activity against vancomycin-resistant Enterococcus faecalis EFL1004; assay type: functional
Escherichia coli [12] = experiment: Antibacterial activity against Escherichia coli ATCC 25922; assay type: functional
Streptococcus pneumoniae [13] = experiment: Antibacterial activity against penicillin-resistant Streptococcus pneumoniae 08-2; assay type: functional
Klebsiella aerogenes = experiment: Antibacterial activity against Enterobacter aerogenes 45102; assay type: functional
Morganella morganii = experiment: Antibacterial activity against Morganella morganii 49086; assay type: functional
Serratia marcescens = experiment: Antibacterial activity against Serratia marcescens 41002; assay type: functional
[14] = Cytotoxicity against african green monkey Vero cells after 24 hrs; assay type: cell-based; settings: chlorocebus sabaeus

SMILES	MIC (Staphylococcus aureus [1]) [µg/mL]	MIC (Shigella sonnei) [µg/mL]	MIC (Staphylococcus aureus [2]) [µg/mL]	MIC (Salmonella typhi) [µg/mL]	MIC (Proteus vulgaris) [µg/mL]	MIC (Escherichia coli [3]) [µg/mL]	MIC [4] [µg/mL]	MIC (Klebsiella pneumoniae) [µg/mL]	MIC (Pseudomonas aeruginosa) [µg/mL]	MIC [6] [µg/mL]	MIC [7] [µg/mL]	MIC [9] [µg/mL]	MIC (Providencia rettgeri) [µg/mL]	MIC (Streptococcus pyogenes) [µg/mL]	MIC (Enterococcus faecalis [10]) [µg/mL]	MIC (Enterococcus faecalis [11]) [µg/mL]	MIC (Escherichia coli [12]) [µg/mL]	MIC (Klebsiella aerogenes) [µg/mL]	MIC (Morganella morganii) [µg/mL]	MIC (Serratia marcescens) [µg/mL]	further results
CO/N=C1\CCN(c2c(F)cc3c(=O)c(C(=O)O)cn(C4CC4)c3c2F)CC1CN (racemic)	0.5 (≈ 1.19 µM)	1 (≈ 2.38 µM)	0.5 (≈ 1.19 µM)	1 (≈ 2.38 µM)	4 (≈ 9.51 µM)	> 128	1 (≈ 2.38 µM)	16 (≈ 38.1 µM)	8 (≈ 19 µM)	1 (≈ 2.38 µM)	4 (≈ 9.51 µM)	2 (≈ 4.76 µM)	8 (≈ 19 µM)	16 (≈ 38.1 µM)	4 (≈ 9.51 µM)	4 (≈ 9.51 µM)	1 (≈ 2.38 µM)	1 (≈ 2.38 µM)	1 (≈ 2.38 µM)	4 (≈ 9.51 µM)	MIC (Staphylococcus aureus [5]): 0.5 µg/mL (≈ 1.19 µM); MIC (Enterobacter cloacae): 32 µg/mL (≈ 76.1 µM); MIC (Streptococcus pneumoniae [8]): 8 µg/mL (≈ 19 µM); MIC (Streptococcus pneumoniae [13]): 8 µg/mL (≈ 19 µM)
CCO/N=C1\CCN(c2c(F)cc3c(=O)c(C(=O)O)cn(C4CC4)c3c2F)CC1CN (racemic)	0.25 (≈ 0.575 µM)	0.5 (≈ 1.15 µM)	1 (≈ 2.3 µM)	0.5 (≈ 1.15 µM)	4 (≈ 9.21 µM)	> 128	2 (≈ 4.6 µM)	32 (≈ 73.7 µM)	16 (≈ 36.8 µM)	0.25 (≈ 0.575 µM)	0.25 (≈ 0.575 µM)	2 (≈ 4.6 µM)	8 (≈ 18.4 µM)	32 (≈ 73.7 µM)	2 (≈ 4.6 µM)	2 (≈ 4.6 µM)	1 (≈ 2.3 µM)	2 (≈ 4.6 µM)	4 (≈ 9.21 µM)	4 (≈ 9.21 µM)	MIC (Staphylococcus aureus [5]): 0.5 µg/mL (≈ 1.15 µM); MIC (Enterobacter cloacae): > 128 µg/mL; MIC (Streptococcus pneumoniae [8]): 8 µg/mL (≈ 18.4 µM); CC50 at 24 h [14]: 257 µg/mL (≈ 591 µM); MIC (Streptococcus pneumoniae [13]): 4 µg/mL (≈ 9.21 µM)
CO/N=C1\CCN(c2c(F)cc3c(=O)c(C(=O)O)cn(C4CC4)c3c2OC(F)F)CC1CN (racemic)	0.125 (≈ 0.267 µM)	16 (≈ 34.2 µM)	1 (≈ 2.13 µM)	0.5 (≈ 1.07 µM)	4 (≈ 8.54 µM)	> 128	1 (≈ 2.13 µM)	32 (≈ 68.3 µM)	8 (≈ 17.1 µM)	0.5 (≈ 1.07 µM)	0.5 (≈ 1.07 µM)	2 (≈ 4.27 µM)	4 (≈ 8.54 µM)	4 (≈ 8.54 µM)	1 (≈ 2.13 µM)	4 (≈ 8.54 µM)	1 (≈ 2.13 µM)	2 (≈ 4.27 µM)	4 (≈ 8.54 µM)	8 (≈ 17.1 µM)	MIC (Staphylococcus aureus [5]): 0.25 µg/mL (≈ 0.534 µM); MIC (Enterobacter cloacae): 2 µg/mL (≈ 4.27 µM); MIC (Streptococcus pneumoniae [8]): 4 µg/mL (≈ 8.54 µM); CC50 at 24 h [14]: 335 µg/mL (≈ 715 µM); MIC (Streptococcus pneumoniae [13]): 2 µg/mL (≈ 4.27 µM)
CO/N=C1\CCN(c2c(F)cc3c(=O)c(C(=O)O)cn(CCF)c3c2F)CC1CN (racemic)	2 (≈ 4.69 µM)	32 (≈ 75 µM)	8 (≈ 18.8 µM)	8 (≈ 18.8 µM)	16 (≈ 37.5 µM)	> 128	32 (≈ 75 µM)	128 (≈ 300 µM)	32 (≈ 75 µM)	8 (≈ 18.8 µM)	8 (≈ 18.8 µM)	128 (≈ 300 µM)	16 (≈ 37.5 µM)	32 (≈ 75 µM)	8 (≈ 18.8 µM)	16 (≈ 37.5 µM)	8 (≈ 18.8 µM)	32 (≈ 75 µM)	16 (≈ 37.5 µM)	16 (≈ 37.5 µM)	MIC (Staphylococcus aureus [5]): 4 µg/mL (≈ 9.38 µM); MIC (Enterobacter cloacae): > 128 µg/mL; MIC (Streptococcus pneumoniae [8]): 32 µg/mL (≈ 75 µM); MIC (Streptococcus pneumoniae [13]): 16 µg/mL (≈ 37.5 µM)
O=C(O)c1cn(C2CC2)c2cc(N3CCNCC3)c(F)cc2c1=O [CIPROFLOXACIN]	0.25 (≈ 0.754 µM)	≤ 0.03	4 (≈ 12.1 µM)	≤ 0.03	≤ 0.03	128 (≈ 386 µM)	2 (≈ 6.04 µM)	0.5 (≈ 1.51 µM)	16 (≈ 48.3 µM)	0.25 (≈ 0.754 µM)	0.25 (≈ 0.754 µM)	1 (≈ 3.02 µM)	≤ 0.03	1 (≈ 3.02 µM)	0.5 (≈ 1.51 µM)	1 (≈ 3.02 µM)	≤ 0.03	≤ 0.03	≤ 0.03	0.25 (≈ 0.754 µM)	MIC (Streptococcus pneumoniae [8]): 1 µg/mL (≈ 3.02 µM); MIC (Streptococcus pneumoniae [13]): 1 µg/mL (≈ 3.02 µM)
CO/N=C1\CN(c2nc3c(cc2F)c(=O)c(C(=O)O)cn3C2CC2)CC1CN (stereo not given) [GEMIFLOXACIN]	≤ 0.03	≤ 0.03	0.5 (≈ 1.28 µM)	≤ 0.03	≤ 0.03	32 (≈ 82.2 µM)	0.06 (≈ 0.154 µM)	0.5 (≈ 1.28 µM)	32 (≈ 82.2 µM)	0.06 (≈ 0.154 µM)	≤ 0.03	0.125 (≈ 0.321 µM)	0.06 (≈ 0.154 µM)	0.125 (≈ 0.321 µM)	0.06 (≈ 0.154 µM)	0.5 (≈ 1.28 µM)	≤ 0.03	≤ 0.03	0.06 (≈ 0.154 µM)	0.125 (≈ 0.321 µM)	MIC (Staphylococcus aureus [5]): ≤ 0.03 µg/mL; MIC (Enterobacter cloacae): ≤ 0.03 µg/mL; MIC (Streptococcus pneumoniae [8]): 0.5 µg/mL (≈ 1.28 µM); MIC (Streptococcus pneumoniae [13]): ≤ 0.03 µg/mL
C[C@H]1COc2c(N3CCN(C)CC3)c(F)cc3c(=O)c(C(=O)O)cn1c23.C[C@H]1COc2c(N3CCN(C)CC3)c(F)cc3c(=O)c(C(=O)O)cn1c23.O [LEVOFLOXACIN]	0.06	≤ 0.03	1	≤ 0.03	≤ 0.03	32	1		8	0.125	0.125	0.25	0.25	1	0.25	2	≤ 0.03	≤ 0.03	≤ 0.03	0.25	MIC (Staphylococcus aureus [5]): 0.06 µg/mL; MIC (Enterobacter cloacae): 0.06 µg/mL
